Measurements reported in patent US8785381B2 (Emisphere Technologies, Inc., priority 2003, dated 2014).

Assay: in vivo
Conditions: male, Sprague-Dawley, rat

CC[C@H](C)[C@H](NC(=O)[C@H](Cc1ccccc1)NC(=O)[C@H](CCC(=O)O)NC(=O)[C@H](CCCCN)NC(=O)[C@H](C)NC(=O)[C@H](C)NC(=O)[C@H](CCC(N)=O)NC(=O)CNC(=O)[C@H](CCC(=O)O)NC(=O)[C@H](CC(C)C)NC(=O)[C@H](Cc1ccc(O)cc1)NC(=O)[C@H](CO)NC(=O)[C@H](CO)NC(=O)[C@@H](NC(=O)[C@H](CC(=O)O)NC(=O)[C@H](CO)NC(=O)[C@@H](NC(=O)[C@H](Cc1ccccc1)NC(=O)[C@@H](NC(=O)CNC(=O)[C@H](CCC(=O)O)NC(=O)[C@H](C)NC(=O)[C@@H](N)Cc1c[nH]cn1)[C@@H](C)O)[C@@H](C)O)C(C)C)C(=O)N[C@@H](C)C(=O)N[C@@H](Cc1c[nH]c2ccccc12)C(=O)N[C@@H](CC(C)C)C(=O)N[C@H](C(=O)N[C@@H](CCCCN)C(=O)NCC(=O)N[C@@H](CCCNC(=N)N)C(N)=O)C(C)C [GLP-1]
Cmax (1 ng/kg): 0.0314 ng/mL
Cmax (2 ng/kg): 0.0324 ng/mL
Cmax (3 ng/kg): 0.0175 ng/mL
Cmax (10 ng/kg): 0.0171 ng/mL
Cmax (50 ng/kg): 0.153 ng/mL
Cmax (0.5 mg/kg): 27.9 ng/mL
Cmax (500 μg/kg): 0.106 ng/mL
